According to patent US6709830B2, “Methods for modulating the activation of a lymphocyte expressed G protein coupled receptor involved in cell proliferation, autoimmunity and inflammation” (The Regents of the University of California, priority 1997, dated 2004):
Entries after “also recorded” stand apart in the source; their conditions may differ.

Tests used:
[1] = target: T1, G2A (Mus musculus, UniProt Q9Z282); test: Calcium assay ([Ca2+]i, Fura-2) in G2A.GFP transfected MCF 10A cells; assay type: cell-based; conditions: for transient increase in [Ca2+]i: LPC 0.1 μM, SPC 0.1 μM, LPA 1 μM, PAF 0.1 μM, ATP 20 μM; for desensitisation to subsequent stimulation with LPC or SPC (1 μM): pretreatment 5 minutes with LPC 1 μM or SPC 10 μM (b23 prints SPC 1.0 μM)
T1 construct: expressed in transfected cells; host or cells: MCF 10A (human breast epithelial cells, no endogenous G2A), plasmid pEXV3 G2A.GFP
T1 sequence (Q9Z282 1-382): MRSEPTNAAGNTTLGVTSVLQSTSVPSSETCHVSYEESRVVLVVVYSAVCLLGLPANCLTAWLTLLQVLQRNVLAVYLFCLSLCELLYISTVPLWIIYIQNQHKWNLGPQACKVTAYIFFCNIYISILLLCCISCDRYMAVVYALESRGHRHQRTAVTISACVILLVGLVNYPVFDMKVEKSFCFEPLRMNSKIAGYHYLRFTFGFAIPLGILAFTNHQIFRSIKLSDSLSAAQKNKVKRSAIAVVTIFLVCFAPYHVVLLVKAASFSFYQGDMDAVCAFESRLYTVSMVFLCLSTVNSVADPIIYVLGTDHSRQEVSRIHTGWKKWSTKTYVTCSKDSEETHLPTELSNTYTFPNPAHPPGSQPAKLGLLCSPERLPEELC
Protocol: (§1) MCF 10A cells were cultured in specialised glass-bottom dishes (Bioptech, Inc., Butler, Pa.) and loaded with Fura-2/AM ([…]; Molecular Probes) at 37° C. for 30 minutes in HEPES buffered saline (pH 7.4) containing 125 mM NaCl, 5 mM KCl, 1.2 mM MgSO4, 11 mM glucose, 1.8 mM CaCl2, 25 mM HEPES, 0.2% BSA. Loaded cells were washed, placed in HEPES buffeted saline without BSA, and incubated for 30 minutes at ambient temperature ensure dye hydrolysis by cytosolic esterases. Using a dual-wavelength spectrofluorometer (RFK-6002, Photon Technology Int'l, So. Brunswick, N.J.) coupled to an inverted fluorescence microscope (Olympus, IX-70, Lake Success, N.Y.), GFP-positive cells were identified using an excitation wavelength of 488 nm, a dichroic 505 nm long-pass and an emitter bandpass of 535 nm (Chroma Technology, Brattleboro, Vt.). [Ca^2+], measurements were performed on individual GFP-positive cells at excitation wavelengths of 340 nm and 380 nm, and an emission wavelength of 510 nm. Prior to data acquisition, background fluorescence (areas without cells) was measured and automatically subtracted from subsequent measurements. Agonists were diluted in HEPES buffered saline and solution changes accomplished by rapidly aspirating the buffer and replacing it with HEPES buffered saline containing the specific agonist. Fura-2 fluorescence signals (340 nm, 380 nm and the 340/380 ratio) originating from individual GFP-positive cells were continuously monitored at a sampling frequency of 25 Hz and collected using a software package from Photon Technology International (Felix™). Conversion of the 340 nm/380 nm ratio value into [Ca^2+]i was estimated by comparing the cellular fluorescence ratio with ratios acquired using Fura-2 (free acid) in buffers containing known Ca^2+ concentrations. [Ca^2+]i was then calculated as described by Grynkiewicz, et al (Grynkiewicz, G, et al, J Biol Chem, 260: pp3440-3450, 1985). All assays were performed in assay buffers containing 1 mM EGTA to exclude measurement of calcium influx.
(§2) To address whether G2A is a lysophospholipid receptor, we examined signalling events in cells ectopically expressing G2A as functional correlates of receptor activation. […] [Ca^2+]i measurements were performed in MCF 10A cells transfected with plasmids encoding green fluorescent protein (GFP) tagged G2A (pEXV3 G2A.GFP) (Kabarowski, J H S, et al, PNAS, 97: pp12109-12114, 2000) or GFP as described (Yan Xu and Derek S. Damron, Methods in Molecular Medicine, 39: Ovarian Cancer: Methods and Protocols, pp611-619, 2000). […] Similarly, dose-dependent responses of G2A.GFP transfected cells to SPC were observed, with an EC50 of approximately 0.4 μM (FIG. 4B). […] Responses to these agonists were not affected by G2A.GFP expression (FIG. 4A, middle and lower panels).

[2] = tested on: MCF 10A cells; test: Calcium assay ([Ca2+]i, Fura-2) in parental or pEXV3 GFP transfected MCF 10A cells (control); assay type: cell-based, human; conditions: SPC or LPC up to 10 μM, LPA 1 μM, PAF 0.1 μM, ATP 20 μM
Protocol: as §1, §2

[3] = target: T1, G2A; test: Radioligand binding assay with cell homogenates of HEK 293 G2A.GFP cells; conditions: for competition for binding of [3H] 16:0 LPC / [3H] SPC to G2A: radioligand 1 nM, unlabelled lipids 100 nM, HEK 293 G2A.GFP
Protocol: To characterise the binding of LPC and SPC to G2A, we performed radioligand binding assays as described previously (Xu, Y, e al, Nature Cell Biology, 2: pp261-267, 2000). [^3H] 16:0 LPC and [^3H] SPC bound to cell homogenates from G2A expressing HEK 293 cells in a time-dependent manner and reached equilibrium after 60 minutes incubation at 4° C. (FIGS. 5A and B). […] LPC and [^3H] SPC. Binding of [^3H] LPC and [^3H] […] The maximum binding capacities for LPC and SPC were approximately 1,503 fmole/10^5 cells and 1,840 fmole/10^5 cells respectively.
Binding assay HEK 293 GFP or HEK 293 G2A.GFP cells were serum starved for 20 hours and subsequently collected in PBS/EDTA. Pelleted cells were stored at −80° C. until use. Frozen cells (10^6 cells/ml) were homogenized in “binding buffer” containing 20 mM Tris-HCl pH 7.5, 100 mM NaCl, 15 mM NaF, 0.2 mM PMSF, 1 mM MgCl2 and 4 mg/ml fatty acid-free BSA in a tight-fit glass Dounce homogeniser. Assays were performed in 96-well plates in triplicate with 100 μl cell homogenate (equivalent to 10^5 cells/well). Varying amounts of [^3H] 16:0 LPC or [^3H] SPC were added to cell homogenates in 50 μl of binding buffer in the presence or absence of cold 16:0 LPC or SPC, or other competitors. Plates were incubated at 4° C. for 2 hours, or for the indicated times. Cell-bound [^3H] LPC or [^3H] SPC was collected onto a filter (Printed Filtermat A, Wallac, Gaithersburg, Md.) using an automated cell harvester (HARVESTER 96, Tomtec, Orange, Conn.). A pause wash programme (five cycle washes) was used. Filters were presoaked in 1% polyethyleneimine (Sigma) to prevent nonspecific binding, dried, sealed in bags (Sample Bag, Wallac) with 4.5 ml Betaplate “Scint” scintillation cocktail (Wallac), and counted in a 1450 Microbeta Trilux Liquid Scintillation and Luminescence Counter (Wallac). Specific binding was calculated by subtraction of nonspecific binding (binding detected in the presence of 100-fold excess unlabelled lipid) from total binding.

[4] = target: T2, G2A.GFP fusion receptor (Mus musculus, UniProt Q9Z282); test: Internalisation of G2A.GFP in HEK 293 G2A.GFP cells (confocal microscopy); assay type: cell-based; conditions: lipid 0.1 μM, 2 hours, serum starved HEK 293 G2A.GFP cells
T2 construct: expressed in transfected cells; host or cells: HEK 293 cells infected with amphotropic MSCV G2A.GFP retrovirus
T2 sequence (Q9Z282 1-382): T1 sequence (Q9Z282 1-382)
Protocol: Agonist dependent receptor internalisation is a feature of GPCRs. G2A.GFP expressing HEK 293 cells (HEK 293 G2A.GFP) were generated by infection with amphotropic MSCV G2A.GFP retroviruses. In serum starved HEK 293 G2A.GFP cells, G2A.GFP is expressed predominantly on the plasma membrane. LPC (0.1 μM), as well as SPC (1 μM), induced internalisation of G2A.GFP in over 90% of cells (FIG. 6). Neither LPA, S-1-P or PAF induced G2A internalisation, which is consistent with LPC acting as a specific ligand for G2A. Treatment of HEK 293 G2A.GFP cells with SPC at low concentrations (0.1 μM) induced receptor internalisation in fewer cells (<50%).
HEK 293 G2A.GFP cells were seeded onto glass coverslips and subsequently serum starved for 16-24 hours prior to treatment with lipids. Two hours following lipid treatment, coverslips were washed with cold PBS and fixed with PBS/4% paraformaldehyde. Subcellular localisation of G2A.GFP was visualised under a confocal fluorescence microscope with a 60× oil immersion lens.

[5] = G2A.GFP transfected MCF 10A cells
[6] = G2A.GFP-transfected MCF 10A cells
[7] = BN 52021 200 μM pretreatment, G2A.GFP-transfected MCF 10A cells
[8] = PTX 100 ng/ml, 16 hours, G2A.GFP-transfected MCF 10A cells

In the case of `CCCCCCCCCCCCCC(=O)O[C@@H]1[C@@H](C)[C@@]2(O)[C@@H](C=C(CO)C[C@]3(O)C(=O)C(C)=C[C@@H]23)[C@@H]2C(C)(C)[C@]12OC(C)=O` [PMA, Phorbol 12-myristate 13-acetate], the “effect of pretreatment on [Ca2+]i increases induced by LPA, LPC and SPC (up to 10 μM)” value ([1]; PMA 100 nM (b23 prints 0.1 mM), 5 minutes, G2A.GFP-transfected MCF 10A cells) is reported as “abolished; also recorded: inhibits” and the “effect of pretreatment on [Ca2+]i increases induced by PAF (0.1 μM) and ATP (20 μM)” value ([1]; PMA 100 nM, 5 minutes, G2A.GFP-transfected MCF 10A cells) is reported as “did not affect”.
`Nc1ncnc2c1ncn2[C@@H]1O[C@H](COP(=O)(O)OP(=O)(O)OP(=O)(O)O)[C@@H](O)[C@H]1O` [ATP] was tested, and the “transient increase in [Ca2+]i” value [1, 5] was “transient elevations” and the “[Ca2+]i response in control cells” value [2] was “transient elevations”.
In the case of `CCCCCCCCCCCCCCCCCC(=O)OC[C@@H](O)COP(=O)([O-])OCC[N+](C)(C)C` [18:0 LPC], the “competition for binding of [3H] 16:0 LPC / [3H] SPC to G2A” value [3] is reported as “potent competitors”.
With `CCCCCCCCCCCCCCCC(=O)OC[C@@H](O)COP(=O)([O-])OCC[N+](C)(C)C` [16:0 LPC] the “competition for binding of [3H] 16:0 LPC / [3H] SPC to G2A” value [3] was “potent competitors” and the “desensitisation to subsequent stimulation with LPC or SPC (1 μM)” value [1, 6] was “induces desensitisation”.
lysophosphatidylinositol [LPI] was tested, and the “competition for binding of [3H] 16:0 LPC / [3H] SPC to G2A” value [3] was “not”.
For `CCCCCCCCCCCCCCCCOC[C@@H](O)COP(=O)([O-])OCC[N+](C)(C)C` [lyso-PAF], the “competition for binding of [3H] 16:0 LPC / [3H] SPC to G2A” value [3] was “not”.
`CCCCCCCCCCCCCC(=O)OC[C@@H](O)COP(=O)([O-])OCC[N+](C)(C)C` [14:0 LPC] was tested, and the “competition for binding of [3H] 16:0 LPC / [3H] SPC to G2A” value [3] was “not and not able to compete”.
In the case of `CC1C(=O)OC2C(O)C34C5CC(C(C)(C)C)C36C(OC(=O)C6O)OC4(C(=O)O5)C12O` (stereo not drawn) [BN 52021], the “effect of pretreatment on [Ca2+]i increase induced by LPC (1 μM), SPC (1 μM), LPA (1 μM) or ATP (20 μM)” value [1, 7] is reported as “not” and the “effect of pretreatment on [Ca2+]i increase induced by PAF” value [1, 7] is reported as “completely blocked”.
With sphingomyelin [SM] the “competition for binding of [3H] 16:0 LPC / [3H] SPC to G2A” value [3] was “not”.
In the case of Pertussis Toxin [PTX], the “effect of pretreatment on [Ca2+]i increases induced by LPA (1 μM), LPC (0.1 μM-5 μM) and SPC (1 μM-5 μM)” value [1, 8] is reported as “inhibits” and the “effect of pretreatment on [Ca2+]i increases induced by PAF (0.1 μM) or ATP (20 μM)” value [1, 8] is reported as “not”.
For `CCCCCCCCCCCCCCCCOC[C@H](COP(=O)([O-])OCC[N+](C)(C)C)OC(C)=O` [PAF], the “competition for binding of [3H] 16:0 LPC / [3H] SPC to G2A” value [3] was “not”, the “transient increase in [Ca2+]i” value [1, 5] was “transient elevations” and the “[Ca2+]i response in control cells” value [2] was “transient elevations”.
With `CCCCCCCCCCCCC/C=C/[C@@H](O)[C@@H](N)COP(=O)(O)O` [S-1-P] the “competition for binding of [3H] 16:0 LPC / [3H] SPC to G2A” value [3] was “not”.
In the case of `CCCCCCCCCCCCC/C=C/[C@@H](O)[C@@H](N)COP(=O)([O-])OCC[N+](C)(C)C` [SPC, sphingosylphosphorylcholine], the Kd ([3]; Scatchard analysis, saturation binding of [3H] 16:0 LPC or [3H] SPC, HEK 293 G2A.GFP cell homogenate, 4° C., read-out: dissociation constant (Kd)) is reported as 229 nM, the “competition for binding of [3H] 16:0 LPC / [3H] SPC to G2A” value [3] is reported as “competed for binding” and the maximum binding capacity ([3]; saturation binding, HEK 293 G2A.GFP cell homogenate) is reported as ~1,840 fmole/10^5 cells. The EC50 ([1]; G2A.GFP transfected MCF 10A cells, 1 mM EGTA in buffer, read-out: EC50 of dose-dependent increase in [Ca2+]i) was about 400 nM, the “transient increase in [Ca2+]i” value [1, 5] was “induced a transient increase in [Ca^2+], albeit to a lesser extent; also recorded: induce transient [Ca^2+], increases” and the “desensitisation to subsequent stimulation with LPC or SPC (1 μM)” value [1, 6] was “induced homologous and heterologous desensitisation; also recorded: induces desensitisation”. For the same molecule, the “[Ca2+]i response in control cells” value [2] was “Neither parental or pEXV3 GFP transfected cells responded” and the “cells with internalisation of G2A.GFP” value [4] was under 50%.
With lysophosphatidyc acid [LPA] the “competition for binding of [3H] 16:0 LPC / [3H] SPC to G2A” value [3] was “not”, the “transient increase in [Ca2+]i” value [1, 5] was “transient elevations” and the “[Ca2+]i response in control cells” value [2] was “transient elevations”.
